Experiment [1] has as its system Mus musculus. Description: Number of surviving Mice in the presence (N,N''-bis(2-chloroethyl)-N-nitrosourea) of BCNU after 60 days of administration of the compound; Survivals= 6/6. Type of experiment: functional.
Experiment [2] concerns P388. Description: Inhibitory activity against P388 murine leukemia at 2 mg/kg concentration. Type of experiment: functional, Mus musculus.
The species entered for experiment [3] is Mus musculus. The experiment can be described thus: Rate of survival of treated Mice to survival of controls * 100. In kind it is functional.
Experiment [4] relates to Mus musculus. The experiment can be described thus: Number of surviving Mice after 60 days of administration of the compound; Survivals= 0/6. Type of experiment: functional.

Regarding `COc1ccc2nc3cc(Cl)ccc3c(NCCCN(CCCN(CCn3cnc4c(N)ncnc43)C(=N)N)C(=N)N)c2c1`, the Survival came to 6 in experiment [1], 16.2 days in experiment [2] and 0 in experiment [4]. Also, the T/C in experiment [3] is on record as 109.
